Tests used:
Experiment in all cases: cell-based
Parameters in all cases: Eurofins Cerep functional GPCR screen, antagonist mode, inhibition of control agonist response
Details in all cases: read-out: % Inhibition of Control Agonist Response, Mean
A3 = target: T1, A3 (Homo sapiens, UniProt P0DMS8)
T1 construct: gene ADORA3

B2 = target: T2, B2 (Homo sapiens, UniProt P30411)
T2 construct: gene BDKRB2

BB1 = target: T3, BB1 (Homo sapiens, UniProt P28336)
T3 construct: gene NMBR

BB3 = target: T4, BB3 (Homo sapiens, UniProt P32247)
T4 construct: gene BRS3

BLT1 (LTB4) = target: T5, BLT1 (LTB4) (Homo sapiens, UniProt Q15722)
T5 construct: gene LTB4R

CCK2 (CCKB) = target: T6, CCK2 (CCKB) (Homo sapiens, UniProt P32239)
T6 construct: gene CCKBR

CCR10 = CCR10 (Homo sapiens, UniProt P46092)
CCR3 = CCR3 (Homo sapiens, UniProt P51677)
CCR7 = CCR7 (Homo sapiens, UniProt P32248)
CGRP = target: T7, CGRP (Homo sapiens, UniProt Q16602)
T7 construct: gene CALCRL

CXCR1 = CXCR1 (Homo sapiens, UniProt P25024)
CXCR5 = CXCR5 (Homo sapiens, UniProt P32302)
CaS = target: T8, CaS (Homo sapiens, UniProt P41180)
T8 construct: gene CASR

ChemR23 = target: T9, ChemR23 (Homo sapiens, UniProt Q99788)
T9 construct: gene CMKLR1

CysLT1 (LTD4) = target: T10, CysLT1 (LTD4) (Homo sapiens, UniProt Q9Y271)
T10 construct: gene CYSLTR1

FFA1 = target: T11, FFA1 (Homo sapiens, UniProt O14842)
T11 construct: gene FFAR1

FFA2 = target: T12, FFA2 (Homo sapiens, UniProt O15552)
T12 construct: gene FFAR2

FFA3 = target: T13, FFA3 (Homo sapiens, UniProt O14843)
T13 construct: gene FFAR3

GAL1 = target: T14, GAL1 (Homo sapiens, UniProt P47211)
T14 construct: gene GALR1

GAL2 = target: T15, GAL2 (Homo sapiens, UniProt O43603)
T15 construct: gene GALR2

GHRH = target: T16, GHRH (Homo sapiens, UniProt Q02643)
T16 construct: gene GHRHR

GPR39 = GPR39 (Homo sapiens, UniProt O43194)
XCR1 / GPR5 = XCR1 / GPR5 (Homo sapiens, UniProt P46094)
α1A = target: T17, α1A (Homo sapiens, UniProt P35348)
T17 construct: gene ADRA1A

α2B = target: T18, α2B (Homo sapiens, UniProt P18089)
T18 construct: gene ADRA2B

β1 = target: T19, β1 (Homo sapiens, UniProt P08588)
T19 construct: gene ADRB1

Chain of CCR10 (P46092 whole entry): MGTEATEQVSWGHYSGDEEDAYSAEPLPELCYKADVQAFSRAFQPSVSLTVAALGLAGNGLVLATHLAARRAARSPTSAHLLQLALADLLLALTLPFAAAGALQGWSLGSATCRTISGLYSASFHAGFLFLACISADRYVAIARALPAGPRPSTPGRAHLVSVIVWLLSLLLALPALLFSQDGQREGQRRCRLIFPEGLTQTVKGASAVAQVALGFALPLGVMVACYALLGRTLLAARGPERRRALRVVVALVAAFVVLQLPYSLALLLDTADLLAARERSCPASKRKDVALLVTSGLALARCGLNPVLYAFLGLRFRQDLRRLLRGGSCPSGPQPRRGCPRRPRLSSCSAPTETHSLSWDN
T7 sequence (Q16602 whole entry): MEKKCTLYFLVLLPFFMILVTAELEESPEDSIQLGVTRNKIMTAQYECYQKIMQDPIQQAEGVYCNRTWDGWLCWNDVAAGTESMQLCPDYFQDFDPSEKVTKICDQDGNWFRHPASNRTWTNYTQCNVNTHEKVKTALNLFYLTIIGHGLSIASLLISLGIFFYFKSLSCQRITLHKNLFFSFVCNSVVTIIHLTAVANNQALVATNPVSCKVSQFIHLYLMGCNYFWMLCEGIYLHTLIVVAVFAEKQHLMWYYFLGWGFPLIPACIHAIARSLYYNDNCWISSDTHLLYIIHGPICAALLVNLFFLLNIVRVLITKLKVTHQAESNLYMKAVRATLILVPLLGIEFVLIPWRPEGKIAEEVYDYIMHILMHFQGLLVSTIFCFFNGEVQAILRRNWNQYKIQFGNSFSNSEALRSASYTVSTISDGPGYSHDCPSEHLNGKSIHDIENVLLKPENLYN
T7 sequence (O60894 whole entry partner): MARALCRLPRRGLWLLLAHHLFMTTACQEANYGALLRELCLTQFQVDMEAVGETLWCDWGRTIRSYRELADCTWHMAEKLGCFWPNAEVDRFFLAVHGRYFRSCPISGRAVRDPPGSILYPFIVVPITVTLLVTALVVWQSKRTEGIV
Chain of CXCR5 (P32302 whole entry): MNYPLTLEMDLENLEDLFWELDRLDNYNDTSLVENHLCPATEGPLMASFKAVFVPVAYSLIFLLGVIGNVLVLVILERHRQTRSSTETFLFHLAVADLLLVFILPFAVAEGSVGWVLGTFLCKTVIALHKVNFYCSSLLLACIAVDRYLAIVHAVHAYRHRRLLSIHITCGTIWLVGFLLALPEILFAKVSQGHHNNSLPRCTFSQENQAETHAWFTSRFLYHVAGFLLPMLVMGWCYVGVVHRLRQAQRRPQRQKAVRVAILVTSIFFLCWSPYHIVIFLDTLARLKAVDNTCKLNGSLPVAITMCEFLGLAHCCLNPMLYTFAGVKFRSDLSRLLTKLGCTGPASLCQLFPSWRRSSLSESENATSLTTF
T3 sequence (P28336 whole entry): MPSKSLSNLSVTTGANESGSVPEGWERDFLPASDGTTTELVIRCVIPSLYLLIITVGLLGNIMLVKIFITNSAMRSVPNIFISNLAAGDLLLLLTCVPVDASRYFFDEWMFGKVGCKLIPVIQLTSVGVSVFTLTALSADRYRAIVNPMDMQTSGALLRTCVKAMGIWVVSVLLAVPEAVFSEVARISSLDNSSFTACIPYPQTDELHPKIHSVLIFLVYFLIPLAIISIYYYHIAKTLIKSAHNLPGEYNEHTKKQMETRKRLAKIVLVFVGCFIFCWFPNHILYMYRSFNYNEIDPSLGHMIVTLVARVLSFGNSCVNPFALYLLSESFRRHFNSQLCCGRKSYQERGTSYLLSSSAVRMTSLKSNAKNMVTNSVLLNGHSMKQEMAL
T18 sequence (P18089 whole entry): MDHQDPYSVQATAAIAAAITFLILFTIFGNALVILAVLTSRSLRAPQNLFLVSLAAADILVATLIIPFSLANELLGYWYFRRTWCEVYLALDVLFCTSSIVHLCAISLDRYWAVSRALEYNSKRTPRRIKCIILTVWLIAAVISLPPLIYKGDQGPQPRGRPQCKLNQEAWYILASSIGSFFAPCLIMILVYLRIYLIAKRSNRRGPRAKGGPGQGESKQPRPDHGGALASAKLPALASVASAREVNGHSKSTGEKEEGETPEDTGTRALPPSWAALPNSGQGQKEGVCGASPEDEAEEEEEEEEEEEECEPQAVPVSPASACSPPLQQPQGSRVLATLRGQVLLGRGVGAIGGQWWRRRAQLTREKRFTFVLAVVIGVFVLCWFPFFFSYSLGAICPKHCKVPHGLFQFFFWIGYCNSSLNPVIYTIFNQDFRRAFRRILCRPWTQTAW
T5 sequence (Q15722 whole entry): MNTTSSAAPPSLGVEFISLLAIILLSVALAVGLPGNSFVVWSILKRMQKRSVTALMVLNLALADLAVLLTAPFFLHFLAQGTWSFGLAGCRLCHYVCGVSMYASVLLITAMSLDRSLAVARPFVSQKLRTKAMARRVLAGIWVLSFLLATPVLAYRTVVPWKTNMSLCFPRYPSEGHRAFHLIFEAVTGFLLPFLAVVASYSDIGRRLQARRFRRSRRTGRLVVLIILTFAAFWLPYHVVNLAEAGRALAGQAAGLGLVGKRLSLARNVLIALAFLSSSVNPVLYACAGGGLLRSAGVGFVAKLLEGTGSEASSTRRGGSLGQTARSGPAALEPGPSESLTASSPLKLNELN
T9 sequence (Q99788 whole entry): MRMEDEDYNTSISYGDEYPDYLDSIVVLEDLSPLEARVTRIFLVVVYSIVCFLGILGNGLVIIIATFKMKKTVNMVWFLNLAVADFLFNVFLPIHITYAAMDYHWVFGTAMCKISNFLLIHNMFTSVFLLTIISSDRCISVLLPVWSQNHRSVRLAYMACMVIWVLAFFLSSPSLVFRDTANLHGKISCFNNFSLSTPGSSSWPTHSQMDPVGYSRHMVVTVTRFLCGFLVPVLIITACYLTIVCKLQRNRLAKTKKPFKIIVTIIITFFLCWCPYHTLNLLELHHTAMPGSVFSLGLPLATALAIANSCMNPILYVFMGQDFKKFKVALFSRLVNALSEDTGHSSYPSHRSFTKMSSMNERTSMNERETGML
T14 sequence (P47211 whole entry): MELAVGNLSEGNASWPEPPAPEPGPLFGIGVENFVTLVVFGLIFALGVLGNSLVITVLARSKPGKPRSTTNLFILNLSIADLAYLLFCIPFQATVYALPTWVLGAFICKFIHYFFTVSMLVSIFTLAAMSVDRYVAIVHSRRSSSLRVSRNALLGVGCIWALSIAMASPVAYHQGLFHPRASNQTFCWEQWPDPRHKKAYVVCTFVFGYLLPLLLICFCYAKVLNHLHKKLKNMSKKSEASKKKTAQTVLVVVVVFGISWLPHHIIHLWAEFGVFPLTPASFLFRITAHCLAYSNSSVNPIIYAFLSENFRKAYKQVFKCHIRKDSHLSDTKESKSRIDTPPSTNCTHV
T16 sequence (Q02643 whole entry): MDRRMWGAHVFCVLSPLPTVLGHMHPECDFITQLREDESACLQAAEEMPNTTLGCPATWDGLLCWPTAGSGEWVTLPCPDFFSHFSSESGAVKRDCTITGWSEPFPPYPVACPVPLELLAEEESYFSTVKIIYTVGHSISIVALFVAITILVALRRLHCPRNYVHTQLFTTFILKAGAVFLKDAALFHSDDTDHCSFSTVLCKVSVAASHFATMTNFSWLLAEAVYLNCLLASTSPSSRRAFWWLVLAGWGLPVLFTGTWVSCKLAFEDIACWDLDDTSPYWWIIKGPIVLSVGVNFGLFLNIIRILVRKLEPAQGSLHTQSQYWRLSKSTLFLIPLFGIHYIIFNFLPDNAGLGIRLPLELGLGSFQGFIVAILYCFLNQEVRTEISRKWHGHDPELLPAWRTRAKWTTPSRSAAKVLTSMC
Chain of CCR3 (P51677 whole entry): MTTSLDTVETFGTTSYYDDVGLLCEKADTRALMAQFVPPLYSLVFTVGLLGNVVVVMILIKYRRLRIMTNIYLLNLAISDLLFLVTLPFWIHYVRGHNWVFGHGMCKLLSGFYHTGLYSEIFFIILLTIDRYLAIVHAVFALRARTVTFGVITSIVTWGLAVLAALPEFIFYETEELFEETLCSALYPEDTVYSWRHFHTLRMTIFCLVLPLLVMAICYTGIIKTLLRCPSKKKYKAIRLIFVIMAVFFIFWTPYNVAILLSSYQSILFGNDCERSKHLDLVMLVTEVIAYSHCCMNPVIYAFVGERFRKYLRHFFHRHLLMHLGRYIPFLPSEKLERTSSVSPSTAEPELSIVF
T15 sequence (O43603 whole entry): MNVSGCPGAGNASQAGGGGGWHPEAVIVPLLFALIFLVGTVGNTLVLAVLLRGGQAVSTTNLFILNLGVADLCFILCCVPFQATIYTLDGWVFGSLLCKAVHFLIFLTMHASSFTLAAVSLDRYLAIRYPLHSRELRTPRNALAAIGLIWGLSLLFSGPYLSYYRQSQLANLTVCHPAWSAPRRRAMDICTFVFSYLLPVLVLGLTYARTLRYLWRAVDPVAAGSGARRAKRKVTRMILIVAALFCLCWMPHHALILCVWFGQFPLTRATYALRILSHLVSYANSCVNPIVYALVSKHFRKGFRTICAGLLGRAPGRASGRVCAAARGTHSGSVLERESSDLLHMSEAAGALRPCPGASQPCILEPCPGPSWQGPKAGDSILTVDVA
T11 sequence (O14842 whole entry): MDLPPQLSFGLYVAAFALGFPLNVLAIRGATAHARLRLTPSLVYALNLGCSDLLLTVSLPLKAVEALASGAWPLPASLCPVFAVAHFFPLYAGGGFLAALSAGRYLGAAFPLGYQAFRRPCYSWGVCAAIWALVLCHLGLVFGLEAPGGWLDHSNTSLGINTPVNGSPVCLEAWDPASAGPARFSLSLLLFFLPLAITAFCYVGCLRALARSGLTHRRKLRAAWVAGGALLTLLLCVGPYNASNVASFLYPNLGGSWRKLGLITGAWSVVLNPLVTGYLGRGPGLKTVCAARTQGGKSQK

Q: For [O-][S@@+](Cc1cncs1)C(c1ccccc1)c1ccccc1 [S-CE-123, (S)-5-((Benzhydrylsulfinyl)Methyl)Thiazole], which inhibition at 2.8 µM (A3) is on record?
A: -1.8%

Q: What about the inhibition at 2.8 µM (B2) of the same compound?
A: -32.1%

Q: What about the inhibition at 2.8 µM (BB1) of the same compound?
A: -10.5%

Q: And the inhibition at 2.8 µM (BB3)?
A: 6.2%

Q: What about the inhibition at 2.8 µM (BLT1 (LTB4)) of the same compound?
A: -4.7%

Q: What about the inhibition at 2.8 µM (CCK2 (CCKB)) of the same compound?
A: -6.9%

Q: And the inhibition at 2.8 µM (CCR10)?
A: -6.9%

Q: What about the inhibition at 2.8 µM (CCR3) of the same compound?
A: -10.7%

Q: And the inhibition at 2.8 µM (CCR7)?
A: 2.8%

Q: What about the inhibition at 2.8 µM (CGRP) of the same compound?
A: -18.8%

Q: What about the inhibition at 2.8 µM (CXCR1) of the same compound?
A: -13%

Q: What about the inhibition at 2.8 µM (CXCR5) of the same compound?
A: -1.9%

Q: And the inhibition at 2.8 µM (CaS)?
A: -6.4%

Q: And the inhibition at 2.8 µM (ChemR23)?
A: -1.6%

Q: And the inhibition at 2.8 µM (CysLT1 (LTD4))?
A: -12.9%

Q: What about the inhibition at 2.8 µM (FFA1) of the same compound?
A: -2.8%

Q: And the inhibition at 2.8 µM (FFA2)?
A: 2.9%

Q: And the inhibition at 2.8 µM (FFA3)?
A: -1.4%

Q: What about the inhibition at 2.8 µM (GAL1) of the same compound?
A: 2.3%

Q: And the inhibition at 2.8 µM (GAL2)?
A: -4.8%

Q: And the inhibition at 2.8 µM (GHRH)?
A: 11.7%

Q: And the inhibition at 2.8 µM (GPR39)?
A: 1.6%

Q: And the inhibition at 2.8 µM (XCR1 / GPR5)?
A: -9.2%

Q: And the inhibition at 2.8 µM (α1A)?
A: 3.1%

Q: What about the inhibition at 2.8 µM (α2B) of the same compound?
A: -8.3%

Q: What about the inhibition at 2.8 µM (β1) of the same compound?
A: 18.4%

— article PMC10046369, “Low-Affinity/High-Selectivity Dopamine Transport Inhibition Sufficient to Rescue Cognitive Functions in the Aging Rat” (Biomolecules, 2023)
